Results taken from patent publication US20220135526A1, “QUATERNARY AMMONIUM SALT COMPOUND, PREPARATION METHOD THEREFOR AND USE THEREOF” (WEST CHINA HOSPITAL, SICHUAN UNIVERSITY, priority 2019, published 2022).
Counter-ions that a name gives are not always drawn.

Tests used:
rat's sciatic nerve = assay: Local anesthetic effect after injection near the rat sciatic nerve (von Frey stimulation; Postural Extensor Thrust for motor function); assay type: in vivo; conditions: SD rats, 0.5 mL near sciatic nerve, compounds 20 mmol/mL; for Duration of motor block: Postural Extensor Thrust; for Duration of motor block / Duration of sensory block: levobupivacaine 0.75%, lidocaine 2%; for Local anesthesia onset time: levobupivacaine 0.75% (22 mmol/L), lidocaine 2% (74 mmol/L); for Duration of sensory block: von Frey
Method: Dosage: for lidocaine group, lidocaine was formulated with distilled water into a solution at the concentration of 2% (74 mmol/L); for levobupivacaine group, levobupivacaine was formulated with distilled water into a solution at the concentration of 0.75% (22 mmol/L); the compound of the present invention was formulated with distilled water into a solution at the concentration of […].
The injection volume for each rat was 0.5 mL, which was guided by a nerve locator and injected near the rat's sciatic nerve. Using von Frey stimulator, the rats were stimulated the soles of the feet in the injected side, to observe the effect of local anesthesia. Meanwhile, Postural Extensor Thrust (PET) was used to evaluate the motor function of the rat: the rat was lifted vertically and the hindlimb in the injected side pedaled on the platform of the electronic balance. […] When the limb was completely paralyzed, the reading was the limb's own weight, about 20 g. If the measured value was more than half of the difference between the baseline and the limb weight, the motor function was regarded as recovery, and if the value was […], the motor function was regarded as loss.

back skin of SD rat = assay: Local anesthetic effect by subcutaneous infiltration (back skin, Von Frey fiber 100 g); assay type: in vivo; conditions: SD rats, 0.5 mL subcutaneous in saline; compounds 6 mmol/L, controls 0.75% (22 mmol/L) and 2% (74 mmol/L)
Method: After the back of SD rat weighing 250-300 g (half female and half male) was shaved and disinfected, a circle with a diameter of about 1.5 cm was drawn on the side of the exposed back, and the circle is divided into 6 equal parts. […] Among the Von Frey fiber yarns, the one with a strength of 100 g was bound to the needle for local skin stimulation. One minute After the drug was injected, the above method was used to stimulate in 6 divisions. […] If back skin contraction was observed, the local anesthetic effect was considered as loss. […] Each compound was tested with 10 rats.

Row | Structure (SMILES) | Duration of motor block (rat's sciatic nerve) [h] | Local anesthesia onset time (rat's sciatic nerve) [min] | Duration of sensory block (rat's sciatic nerve) [h] | Duration of local anesthesia (median) (back skin of SD rat) [h] | Local anesthesia onset time (median) (back skin of SD rat) [min]
1 | CCCCC[N+](CCCCCCCN1CCCCCC1C(=O)Nc1c(C)cccc1C)(CCOCC)CC(=O)Nc1c(C)cccc1C (centres unmarked) [Example 70 product] | 17 | 2 | 53 | 75 | 4
2 | CCCCC[N+](CCCCCCCCN1CCCCCCC1C(=O)Nc1c(C)cccc1C)(CCOCC)CC(=O)Nc1c(C)cccc1C (centres unmarked) [Example 25 product] | 12 | 5 | 44 | 82 | 3
3 | COCC[N+](CCCCCCN1CCCCC1C(=O)Nc1c(C)cccc1C)(CCOC)CC(=O)Nc1c(C)cccc1C.[Br-] (centres unmarked) [Example 21 product] | 13 | 5 | 47 | 64 | 1
4 | CCCCC[N+](CO)(CCCCCCN1CCCCC1C(=O)Nc1c(C)cccc1C)CC(=O)Nc1c(C)cccc1C.[Br-] (centres unmarked) [Example 15 product] | 16 | 5 | 44 | 73 | 4
5 | CCCCC[N+](CCCCC)(CCCN1CCCCC1C(=O)Nc1c(C)cccc1C)CC(=O)Nc1c(C)cccc1C (centres unmarked) [Example 1 product] | 21 | 3 | 32 | 25 | 1
6 | CCCCCC[N+](CCCCCC)(CCCN1CCCCC1C(=O)Nc1c(C)cccc1C)CC(=O)Nc1c(C)cccc1C (centres unmarked) [Example 73 product] | 20 | 3 | 51 | 59 | 2
7 | Cc1cccc(C)c1NC(=O)C[N+](CO)(CCCCO)CCCCCCN1CCCCC1C(=O)Nc1c(C)cccc1C.[Br-] (centres unmarked) [Example 19 product] | 10 | 5 | 39 | 62 | 1
8 | CCCCC[N+](CCCO)(CCCCCCN1CCCCC1C(=O)Nc1c(C)cccc1C)CC(=O)Nc1c(C)cccc1C.[Br-] (centres unmarked) [Example 14 product] | 13 | 5 | 41 | 75 | 2
9 | CCOCC[N+](CCCCCCN1CCC1C(=O)Nc1c(C)cccc1C)(CCOCC)CC(=O)Nc1c(C)cccc1C (centres unmarked) [Example 67 product] | 14 | 1 | 67 | 58 | 1
10 | CCCCC[N+](CCCCCCN1CCCCC1C(=O)Nc1c(C)cccc1C)(CCOCC)CC(=O)Nc1c(C)cccc1C (centres unmarked) [Example 20 product] | 14 | 5 | 54 | 47 | 3
11 | Cc1cccc(C)c1NC(=O)C[N+]1(CCCOCCCN2CCCCC2C(=O)Nc2c(C)cccc2C)CC(C)OC(C)C1 (centres unmarked) [Example 32 product] | 17 | 2 | 46 | 56 | 2
12 | CCCOCCCC[N+](CCCCCC(=O)O)(CCCSCCCN1CCCCC1C(=O)Nc1c(C)cccc1C)CC(=O)Nc1c(C)cccc1C (centres unmarked) [Example 29 product] | 15 | 5 | 50 | 73 | 2
13 | CCCCN1CCCC[C@H]1C(=O)Nc1c(C)cccc1C [0.75% levobupivacaine hydrochloride, levobupivacaine hydrochloride, reference compound] | 2.5 | 1 | 2.5 | 7 | 1
14 | CCOCC[N+](CCCCO)(CCCCCCN1CCCCC1C(=O)Nc1c(C)cccc1C)CC(=O)Nc1c(C)cccc1C (centres unmarked) [Example 35 product] | 13 | 2 | 54 | 92 | 2
15 | Cc1cccc(C)c1NC(=O)C[N+](CCCO)(CCCCO)CCCCCCN1CCCCC1C(=O)Nc1c(C)cccc1C.[Br-] (centres unmarked) [Example 18 product] | 16 | 2 | 38 | 49 | 1
16 | CCCCC[N+](CCCCC)(CCCCCCCN1CCCCCC1C(=O)Nc1c(C)cccc1C)CC(=O)Nc1c(C)cccc1C (centres unmarked) [Example 68 product] | 21 | 1 | 79 | 73 | 3
17 | CCCCCC[N+](CCCCCC)(CCOCCOCCN1CCCCC1C(=O)Nc1c(C)cc(O)cc1C)CC(=O)Nc1c(C)cc(OC)cc1C (centres unmarked) [Example 4 product] | 13 | 7 | 23 | 35 | 1
18 | CCCCCC[N+](CCCCCCN1CCCCC1C(=O)Nc1c(C)cccc1C)(CCOCCC)CC(=O)Nc1c(C)cccc1C (centres unmarked) [Example 37 product] | 17 | 1 | 45 | 64 | 1
19 | CCCCC[N+](CCCCO)(CCCCCCCN1CCCCCC1C(=O)Nc1c(C)cccc1C)CC(=O)Nc1c(C)cccc1C (centres unmarked) [Example 26 product] | 16 | 5 | 45 | 92 | 3
20 | Cc1cccc(C)c1NC(=O)C[N+]1(CCCCCCN2CCCCC2C(=O)Nc2c(C)cccc2C)CCOCC1 (centres unmarked) [Example 52 product] | 15 | 2 | 56 | 85 | 3
21 | Cc1cccc(C)c1NC(=O)C[N+](CCO)(CCO)CCCCCCN1CCCCC1C(=O)Nc1c(C)cccc1C (centres unmarked) [Example 17 product] | 18 | 5 | 37 | 56 | 2
22 | Cc1cccc(C)c1NC(=O)C[N+]1(CCCCN2CCCCC2C(=O)Nc2c(C)cccc2C)CCOC(C)C1 (centres unmarked) [Example 48 product] | 15 | 5 | 57 | 73 | 2
